According to paper PMC11044151, “Development of Half-Sandwich Ru, Os, Rh, and Ir Complexes Bearing the Pyridine-2-ylmethanimine Bidentate Ligand Derived from 7-Chloroquinazolin-4(3H)-one with Enhanced Antiproliferative Activity” (ACS Omega, 2024):
Where two headings read alike, the source gives them in different places.

Tests used:
SW620M = assay: Neutral red uptake antiproliferative assay, MDR line SW620M; type: cell-based, human; details: for IC50: exposure time 72 h, n = 3, ABCC1-overexpressing MDR line; for activity factor IC50(1)/IC50(3a–4d), SW620M: vs corresponding amine (R)-1 or (S)-1, 72 h
Source text: (§1) Next, we evaluated the cytotoxicity of the synthesized complexes toward the panel of six multidrug-resistant (MDR) cell lines derived from SW620 and characterized by the overexpression of various ABC proteins, namely, ABCG2 (SW620C and SW620Mito), ABCC1 (SW620M and SW620E), and ABCB1 (SW620D, SW620E, and SW620V) (Table 3, Figures S29 and S32). […] The activity of the complexes derived from the ligand (S)-2 is also considerably higher than that of the compounds containing the ligand (R)-2. The cytotoxicity of both rhodium 4c and iridium 4d complexes is higher than that of amine (S)-1. In the case of 4c, the increase in cytotoxicity is low, with the highest value of 3.7-fold for the SW620Mito line. […] Compound 4d also exerts a 2.1- and 2.6-fold higher cytotoxicity than […] against the SW620C and SW620D lines.
(§2) For this purpose, neutral red uptake assay was performed. […] The results were presented as a percentage of control.

A549 = assay: Neutral red uptake antiproliferative assay, A549; details: for IC50: read-out: IC50 A549; for activity factor IC50(1)/IC50(3a–4d), A549: vs corresponding amine (R)-1 or (S)-1, 72 h
Source text: (§3) To assess the impact of conjugating half-sandwich complexes with amines 1 via an imine-pyridine ligand on biological activity, we examined the antiproliferative potential of (R)- and (S)-1 and organometallic conjugates 3a–d and 4a–d in selected human cancer cell lines: alveolar basal epithelial cell adenocarcinoma (A549), colorectal adenocarcinomas (Colo205 and SW620), colorectal carcinoma (HCT116), hepatocellular carcinoma (HepG2), and breast adenocarcinoma (MCF7). The choice of cell lines was dictated by results of previously published clinical trials on ispinesib.[49],[50]
(§4) Cell lines used in this study were purchased from the American Type Culture Collection via LGC Standards. Human normal lung fibroblasts (MRC-5), alveolar basal epithelial cell adenocarcinoma (A549), colorectal adenocarcinoma (Colo205), hepatocellular carcinoma (HepG2), breast adenocarcinoma (MCF7), and colorectal adenocarcinoma (SW620) and its MDR variants[55] were cultured in standard conditions (37 °C, 5% CO2, 100% relative humidity) in high glucose DMEM medium supplemented with GlutaMax, HEPES (ThermoFisher Scientific) and 10% fetal bovine serum (EURx, Poland). All cell lines were tested for Mycoplasma contamination using a MycoProbe mycoplasma detection kit (R&D System).
(§5) For this purpose, neutral red uptake assay was performed. 10^4 of cells were seeded per well of a 96-well plate and left overnight to allow cells to attach to the surface. Then, the cells were exposed to a desired concentration of tested compounds. Stock solutions were prepared in DMSO and were used immediately after preparation. The final concentration of DMSO was constant and nontoxic (0.1% v/v). After 70 h of culture, neutral red was added to the final concentration of 1 mM. After 2 h of incubation with the dye, the medium was aspirated and cells were washed with ice-cold PBS. The dye was released using 100 μL of the solubilizer (1% acetic acid in 50% ethanol) on an orbital shaker (10 min). The absorbance at 540 nm was measured using an EnVision multilabel plate reader (PerkinElmer). […] The IC90 and IC50 parameters were calculated using GraphPad Prism v9 software using the five-parameter nonlinear logistic regression model.

HCT116 = assay: cells; details: for IC50: read-out: IC50 HCT116; for activity factor IC50(1)/IC50(3a–4d), HCT116: vs corresponding amine (R)-1 or (S)-1, 72 h
Source text: as §3, §5

HepG2 = assay: cells; details: for IC50: read-out: IC50 HepG2; for activity factor IC50(1)/IC50(3a–4d), HepG2: vs corresponding amine (R)-1 or (S)-1, 72 h
Source text: as §3, §4, §5

MCF7 = assay: cells; details: for IC50: read-out: IC50 MCF7; for activity factor IC50(1)/IC50(3a–4d), MCF7: vs corresponding amine (R)-1 or (S)-1, 72 h
Source text: as §3, §4, §5

Colo205 = assay: cells; details: for IC50: read-out: IC50 Colo205; for activity factor IC50(1)/IC50(3a–4d), Colo205: vs corresponding amine (R)-1 or (S)-1, 72 h
Source text: as §3, §4, §5

SW620 = assay: Neutral red uptake antiproliferative assay, SW620; type: cell-based, human; details: for IC50: exposure time 72 h, n = 3, 95% CI given; for activity factor IC50(1)/IC50(3a–4d), SW620: vs corresponding amine (R)-1 or (S)-1, 72 h
Source text: as §3, §4, §5

SW620V = assay: Neutral red uptake antiproliferative assay, MDR line SW620V; type: cell-based, human; details: for IC50: exposure time 72 h, n = 3, ABCB1-overexpressing MDR line; for activity factor IC50(1)/IC50(3a–4d), SW620V: vs corresponding amine (R)-1 or (S)-1, 72 h
Source text: as §1, §2

SW620E = assay: Neutral red uptake antiproliferative assay, MDR line SW620E; type: cell-based, human; details: for IC50: exposure time 72 h, n = 3, ABCC1- and ABCB1-overexpressing MDR line; for activity factor IC50(1)/IC50(3a–4d), SW620E: vs corresponding amine (R)-1 or (S)-1, 72 h
Source text: as §1, §2

SW620D = assay: Neutral red uptake antiproliferative assay, MDR line SW620D; type: cell-based, human; details: for IC50: exposure time 72 h, n = 3, ABCB1-overexpressing MDR line; for activity factor IC50(1)/IC50(3a–4d), SW620D: vs corresponding amine (R)-1 or (S)-1, 72 h
Source text: as §1, §2

SW620Mito = assay: Neutral red uptake antiproliferative assay, MDR line SW620Mito; type: cell-based, human; details: for IC50: exposure time 72 h, n = 3, ABCG2-overexpressing MDR line; for activity factor IC50(1)/IC50(3a–4d), SW620Mito: vs corresponding amine (R)-1 or (S)-1, 72 h
Source text: as §1, §2

SW620C = assay: Neutral red uptake antiproliferative assay, MDR line SW620C; type: cell-based, human; details: for IC50: exposure time 72 h, n = 3, ABCG2-overexpressing MDR line; for activity factor IC50(1)/IC50(3a–4d), SW620C: vs corresponding amine (R)-1 or (S)-1, 72 h
Source text: as §1, §2

SW620 cells = assay: Cell cycle distribution by flow cytometry, SW620; type: cell-based, human; details: concentration equal to IC75 of (S)-1 / (R)-1, mean ± SEM, n = 3; for Cell cycle fraction G1, 24 h / Cell cycle fraction G2/M, 24 h / Cell cycle fraction S, 24 h: SW620, 24 h; for Cell cycle fraction G1, 48 h / Cell cycle fraction G2/M, 48 h / Cell cycle fraction S, 48 h: SW620, 48 h
Description: Ispinesib leads to the formation of monopolar mitotic spindles and a blockade of chromosome segregation in cancer cells. Using flow cytometry, we assessed the cell cycle distribution in the SW620 and SW620E cells exposed to the studied compounds for 24 and 48 h. […] Both complexes, 3c and 3d, decrease the percentage of cells in the G1/G0 phase and increase the percentage in the S and G2/M phases. […] Furthermore, prolonged exposure to the compounds increases the percentage of cells in the G2/M phase, with the most intensive effect observed for 3c and 3d.
SW620 and SW620E cells lines (vulnerable and resistant variants, respectively) were seeded in 6-well plates at a density of 10^5 cells per well. […] After 24 h, the cells were trypsinized and fixed with ice-cold 70% v/v ethanol. The cells were stained with 75 μM propidium iodide with 50 Kunitz units of RNase A in PBS for 30 min at 37 °C. All samples were analyzed using a LSRII flow cytometer (Becton Dickinson) at a PE channel ([…]). Cell cycle phase distribution was determined using a built-in cell cycle module (Watson pragmatic algorithm) by FlowJo 7.6.1 software.

[1] = exposure time 72 h, n = 3, 95% CI given

Compound	Cell cycle fraction G1, 24 h (SW620 cells) [%]	Cell cycle fraction G2/M, 24 h (SW620 cells) [%]	Cell cycle fraction S, 24 h (SW620 cells) [%]	Cell cycle fraction G1, 48 h (SW620 cells) [%]	Cell cycle fraction G2/M, 48 h (SW620 cells) [%]	Cell cycle fraction S, 48 h (SW620 cells) [%]	IC50 (SW620M) [µM]	activity factor IC50(1)/IC50(3a–4d), SW620M (SW620M)	IC50 (A549; [1]) [µM]	activity factor IC50(1)/IC50(3a–4d), A549 (A549)	IC50 (HCT116; [1]) [µM]	activity factor IC50(1)/IC50(3a–4d), HCT116 (HCT116)	IC50 (HepG2; [1]) [µM]	activity factor IC50(1)/IC50(3a–4d), HepG2 (HepG2)	IC50 (MCF7; [1]) [µM]	activity factor IC50(1)/IC50(3a–4d), MCF7 (MCF7)	IC50 (Colo205; [1]) [µM]	activity factor IC50(1)/IC50(3a–4d), Colo205 (Colo205)	IC50 (SW620) [µM]	activity factor IC50(1)/IC50(3a–4d), SW620 (SW620)	also measured
CC(C)[C@H](N)c1nc2cc(Cl)ccc2c(=O)n1Cc1ccccc1 [(S)-1, reference compound]	41.8 ± 1.2	37.1 ± 1.2	19.5 ± 0.3	35.2 ± 1.1	42.5 ± 0.6	19.9 ± 0.4	–	–	–	–	–	–	–	–	–	–	–	–	–	–	IC50 (SW620M; Homo sapiens): 3.46 µM; IC50 (A549; Homo sapiens, A549, 72 h): 7.05 µM; IC50 (HCT116; Homo sapiens, HCT-116, 72 h): 8.06 µM; IC50 (HepG2; Homo sapiens, HepG2, 72 h): 2.4 µM; IC50 (MCF7; Homo sapiens, MCF7, 72 h): 3.91 µM; IC50 (Colo205; Homo sapiens, COLO 205, 72 h): 6.07 µM; IC50 (SW620; Homo sapiens, SW-620): 2.87 µM; IC50 (SW620V; Homo sapiens): 3.44 µM; IC50 (SW620E; Homo sapiens): 4.05 µM; IC50 (SW620D; Homo sapiens): 4.15 µM; IC50 (SW620Mito; Homo sapiens): 3.91 µM; IC50 (SW620C; Homo sapiens): 3.33 µM
CC(C)[C@H](N=Cc1ccccn1)c1nc2cc(Cl)ccc2c(=O)n1Cc1ccccc1.Cc1ccc(C(C)C)cc1.F[P-](F)(F)(F)(F)F.[Cl-].[Os+2] [Compound 4b, [(cym)Os((S)-2)Cl]PF6]	51.8 ± 0.2	32.6 ± 0.3	15.0 ± 0.5	41.8 ± 0.4	42.7 ± 0.6	14.9 ± 0.4	2.45	(1.41)	2.19	(3.22)	0.823	(9.79)	1.13	(2.12)	0.438	(8.93)	0.904	(6.71)	2.31	(1.24)	increased cytotoxicity vs corresponding amine 1, HCT116 (HCT116): 10 fold; increased cytotoxicity vs corresponding amine 1, MCF7 (MCF7): 9 fold; increased cytotoxicity vs corresponding amine 1, Colo205 (Colo205): 7 fold; IC50 (SW620V): 9.3 µM; activity factor IC50(1)/IC50(3a–4d), SW620V (SW620V): (0.370); IC50 (SW620E): 12.8 µM; activity factor IC50(1)/IC50(3a–4d), SW620E (SW620E): (0.316); IC50 (SW620D): 13.5 µM; activity factor IC50(1)/IC50(3a–4d), SW620D (SW620D): (0.307); IC50 (SW620Mito): 3.78 µM; activity factor IC50(1)/IC50(3a–4d), SW620Mito (SW620Mito): (1.03); IC50 (SW620C): 4.54 µM; activity factor IC50(1)/IC50(3a–4d), SW620C (SW620C): (0.738)
CC(C)[C@H](N=Cc1ccccn1)c1nc2cc(Cl)ccc2c(=O)n1Cc1ccccc1.Cc1c(C)c(C)[c-](C)c1C.F[P-](F)(F)(F)(F)F.[Cl-].[Rh+3] [Compound 4c, [(Cp*)Rh((S)-2)Cl]PF6]	52.6 ± 1.9	32.7 ± 2.0	13.6 ± 0.3	41.6 ± 1.0	43.8 ± 1.4	13.7 ± 0.4	2.25	(1.54)	3.79	(1.86)	2.94	(2.74)	1.15	(2.09)	1.5	(2.61)	2.89	(2.10)	2.24	(1.28)	IC50 (SW620V): 2.98 µM; activity factor IC50(1)/IC50(3a–4d), SW620V (SW620V): (1.15); IC50 (SW620E): 6.2 µM; activity factor IC50(1)/IC50(3a–4d), SW620E (SW620E): (0.653); IC50 (SW620D): 6.07 µM; activity factor IC50(1)/IC50(3a–4d), SW620D (SW620D): (0.684); IC50 (SW620Mito): 1.05 µM; increase in cytotoxicity vs corresponding amine 1, SW620Mito (SW620Mito; rounded value): 3.7 fold; activity factor IC50(1)/IC50(3a–4d), SW620Mito (SW620Mito): (3.72); IC50 (SW620C): 2.97 µM; activity factor IC50(1)/IC50(3a–4d), SW620C (SW620C): (1.12)
